# In patent publication US6521623B1, “N,N'-disubstituted benzimidazolone derivatives with affinity at the serotonin and dopamine receptors” (Boehringer Ingelheim Pharma KG, priority 2000, dated 2003):
# Where two headings read alike, the source gives them in different places.
# How the values were obtained:
# D4 human receptors = molecular target: T1, D4 human receptors (Homo sapiens, UniProt P21917); test: D4 Radioligand Receptor Binding Assay ([3H] YM-09151-2, CHO cell membranes); details: compound 10^−7 M, singlicate, [3H] YM-09151-2 0.15-0.25 nM
# T1 construct: expressed in transfected cells; host or cells: CHO cells
# T1 sequence (P21917 1-419): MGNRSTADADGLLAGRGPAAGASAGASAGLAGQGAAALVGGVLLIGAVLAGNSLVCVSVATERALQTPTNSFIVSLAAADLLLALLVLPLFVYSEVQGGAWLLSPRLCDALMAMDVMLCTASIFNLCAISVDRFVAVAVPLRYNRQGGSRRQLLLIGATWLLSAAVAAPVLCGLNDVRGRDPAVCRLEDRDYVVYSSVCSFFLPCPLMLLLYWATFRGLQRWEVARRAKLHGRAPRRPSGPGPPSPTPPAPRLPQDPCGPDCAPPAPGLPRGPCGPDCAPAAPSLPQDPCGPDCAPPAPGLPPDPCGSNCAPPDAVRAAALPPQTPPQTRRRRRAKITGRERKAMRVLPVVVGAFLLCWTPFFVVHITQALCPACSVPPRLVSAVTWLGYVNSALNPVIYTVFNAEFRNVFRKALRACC
# Procedure: D4 Radioligand Receptor Binding Assay
# Membranes from CHO cells expressing D4 human receptors, were suspended in incubation buffer.
# Binding assays were performed in MultiProbe 204 pipetting system (Packard), according to a predetermined mapping, consistent with the software Screen. The compounds were tested in singlicate at one concentration (10^−7 M) in a total volume of 1000 μl (980 μl of diluted membranes, 10 μl DMSO or unlabelled ligand and 10 μl of [^3H] YM-09151-2 (0.15-0.25 nM). After incubation for 120 minutes at 27° C., the reaction was stopped by rapid filtration through Tomtec Cell Harvester (48 wells) using Filtermat B (presoaked in 0.1% PEI) filters. Filters were washed with ice-cold 50 mM Tris-HCl (pH 7.4) buffer (9×700 μl), dried, covered with MeltiLex B/HS (Wallac) scintillator sheets and heated in oven at 80° C. to 90° C. for about 10 minutes, transferred into plastic sample bags (Wallac), sealed, and put into 1024 Beta Plate scintillation counter (Wallac). Non-specific binding was determined in the presence of clozapine dissolved in DMSO to a final concentration of 10^−5 M.
# (§1) The specific radioligand binding to the receptor was defined by the difference between total binding and non-specific binding, determined in the presence of an excess of unlabelled ligand. Results were expressed as percentage of control specific binding obtained in the presence of the compounds.
# 5-HT1A [1] = molecular target: T2, 5-HT1A (Homo sapiens, UniProt P08908); test: 5HT1A Radioligand Receptor Binding Assay ([3H]-8-OH-DPAT, CHO cell membranes); set-up: expressed in transfected cells; host or cells: CHO cells; details: for inhibition at 0.1 µM / 5-HT1A Receptor Binding Assay % inhibition (10^−7 M): compound 10^−7 M, singlicate, [3H]-8-OH-DPAT 0.6-0.7 nM
# T2 sequence (P08908 1-422): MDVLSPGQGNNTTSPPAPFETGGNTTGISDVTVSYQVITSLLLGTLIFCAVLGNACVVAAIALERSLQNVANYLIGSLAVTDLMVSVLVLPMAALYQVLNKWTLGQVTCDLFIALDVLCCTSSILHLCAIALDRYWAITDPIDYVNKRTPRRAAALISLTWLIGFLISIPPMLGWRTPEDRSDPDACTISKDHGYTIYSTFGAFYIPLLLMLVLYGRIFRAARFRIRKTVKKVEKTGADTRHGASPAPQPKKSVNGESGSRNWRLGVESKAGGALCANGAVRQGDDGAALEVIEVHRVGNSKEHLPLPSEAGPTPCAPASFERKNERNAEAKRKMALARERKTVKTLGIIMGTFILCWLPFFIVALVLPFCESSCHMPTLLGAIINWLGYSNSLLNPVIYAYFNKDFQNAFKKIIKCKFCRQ
# Procedure: 5HT1A Radioligand Receptor Binding Assay
# Membranes from CHO cells, expressing 5-HT1A human receptors were suspended in incubation buffer.
# Binding assays were performed in MultiProbe 204 pipetting system (Packard), according to a predetermined mapping, consistent with the software Screen. The compounds were tested in singlicate at one concentration (10^−7 M) in a total volume of 1000 μl. 980 μl of diluted membranes, 10 μl DMSO or unlabelled ligand and 10 μl of [^3H]-8-OH-DPAT (0.6-0.7 nM) were incubated for 60 minutes at 27° C. The reaction was stopped by rapid filtration through Tomtec Cell Harvester (48 wells) using Filtermat B (presoaked in 0.1% PEI) filters. Filters were washed with ice-cold 50 mM Tris-HCl (pH 7.4) buffer (9×700 μl), dried, covered with MeltiLex B/HS scintillator sheets (Wallac) and heated at 80° C. to 90° C. for about 10 minutes, transferred into plastic sample bags (Wallac), sealed, and put into 1024 Beta Plate scintillation counter (Wallac). Non-specific binding was determined in the presence of 5-HT (10^−5 M).
# as §1, with “compounds. The affinity values (IC50) for the compounds were obtained by a nonlinear least squares regression analysis on the basis of a one binding site model.” for “compounds.”
# 5-HT1A [2] = molecular target: T2, 5-HT1A; test: 5-HT1 Functional Assay (cAMP) in CHO/5-HT1A cells; format: cell-based; set-up: expressed in transfected cells; host or cells: CHO/5-HT1A cells
# Procedure: 5-HT1 Functional Assay (cAMP)
# CHO/5-HT1A cells were random seeded at a density of about 200,000/well in 24 well plates the day prior to the experiment. On the day of the experiment, cells were pretreated for 15 minutes at 37° C. with 500 μM isobutylmethylxantine (IBMX) dissolved in culture medium without serum. Wells were then divided in different groups in duplicate as follows: control, 10 μM FSK, 10 μM FSK+1 μM 5-HT as positive standard and 10 μM FSK+10 μM of the different compound under evaluation. Sample solutions were added and incubated for additional 15 minutes at 37° C. After incubation, the medium was aspirated and the reaction stopped by adding 200 μl of lysis buffer. Plates were shaken for 5 minutes, then the lysate was removed and samples were stored at 4° C. until the day of the assay. For the cAMP evaluation, samples were properly diluted and the cAMP content was measured by an enzyme immunoassay system.
# [3] = [3H]-8-OH-DPAT, CHO membranes, human 5-HT1A, read-out: 5-HT1A Receptor Binding IC50
Compound,D4 Receptor Binding Assay % inhibition (10^−7 M) (D4 human receptors) [%],"5-HT1A Receptor Binding Assay % inhibition (10^−7 M) (5-HT1A [1]; CHO membranes, human 5-HT1A) [%]",IC50 (5-HT1A [1]; [3]) [nM],inhibition at 10 µM (5-HT1A [2]) [%],further results
O=c1n(CCN2CCOCC2)c2ccccc2n1CCN1CCN(c2cccc(C(F)(F)F)c2)CC1 [Compound 228],,,6,82,"inhibition at 0.1 µM (D4 human receptors): 33%; inhibition at 0.1 µM (5-HT1A [1]; CHO membranes, human 5-HT1A): 95%"
COCCn1c(=O)n(C/C=C\CN2CCN(c3cccc(C(F)(F)F)c3)CC2)c2ccccc21 [Compound 284],,,4.9,82,
COCCn1c(=O)n(C/C=C\CN2CC=C(c3ccccc3)CC2)c2ccccc21 [Compound 285],,,,47,"inhibition at 0.1 µM (D4 human receptors): 32%; IC50 (5-HT1A [1]): 5.2 nM; inhibition at 0.1 µM (5-HT1A [1]; CHO membranes, human 5-HT1A): 96%"
COCCn1c(=O)n(C/C=C/CN2CCN(c3cccc(C(F)(F)F)c3)CC2)c2ccccc21 [Compound 301],,,2.6,83,
O=c1n(C/C=C/CN2CCN(c3cccc(Cl)c3)CC2)c2ccccc2n1CCN1CCOCC1 [Compound 348],,,3.5,57,
O=c1n(C/C=C\CN2CCc3c([nH]c4ccccc34)C2)c2ccccc2n1CCO [Compound 367],90,61,,,
O=c1n(C/C=C/CN2CCN(c3cccc(Cl)c3)CC2)c2ccccc2n1CCO [Compound 382],,,11,64,"inhibition at 0.1 µM (D4 human receptors): 39%; inhibition at 0.1 µM (5-HT1A [1]; CHO membranes, human 5-HT1A): 88%"
O=c1n(C/C=C/CN2CCN(c3cccc(C(F)(F)F)c3)CC2)c2ccccc2n1CCO [Compound 386],,,6.7,82,
CCNC(=O)OCCn1c(=O)n(C/C=C\CN2CCN(c3cccc(C(F)(F)F)c3)CC2)c2ccccc21 [Compound 403],,,5.5,84,
CCNC(=O)OCCn1c(=O)n(C/C=C\CN2CC=C(c3ccccc3)CC2)c2ccccc21 [Compound 404],,,2.1,60,"inhibition at 0.1 µM (D4 human receptors): 34%; inhibition at 0.1 µM (5-HT1A [1]; CHO membranes, human 5-HT1A): 95%"
CCNC(=O)OCCn1c(=O)n(C/C=C/CN2CCN(c3cccc(C(F)(F)F)c3)CC2)c2ccccc21 [Compound 420],,,1.8,87,
CCNC(=O)OCCn1c(=O)n(C/C=C/CN2CC=C(c3ccccc3)CC2)c2ccccc21 [Compound 421],,,0.66,56,
CC(=O)NCCn1c(=O)n(C/C=C/CN2CCN(c3cccc(C(F)(F)F)c3)CC2)c2ccccc21 [Compound 481],,,11,82,
CS(=O)(=O)NCCn1c(=O)n(C/C=C\CN2CCN(c3cccc(Cl)c3)CC2)c2ccccc21 [Compound 499],,,5,74,
CS(=O)(=O)NCCn1c(=O)n(C/C=C\CN2CCc3c([nH]c4ccccc34)C2)c2ccccc21 [Compound 501],63,70,,,
CS(=O)(=O)NCCn1c(=O)n(C/C=C\CN2CCN(c3ccc(Cl)c(Cl)c3)CC2)c2ccccc21 [Compound 505],58,78,,,
CS(=O)(=O)NCCn1c(=O)n(C/C=C/CN2CCN(c3cccc(C(F)(F)F)c3)CC2)c2ccccc21 [Compound 525],,,1.5,87,
CS(=O)(=O)NCCn1c(=O)n(C/C=C/CN2CCN(c3ccc(Cl)c(Cl)c3)CC2)c2ccccc21 [Compound 527],36,73,,,

# Further lines, with some results ahead:
D4 Receptor Binding Assay % inhibition (10^−7 M) (D4 human receptors) [%],"5-HT1A Receptor Binding Assay % inhibition (10^−7 M) (5-HT1A [1]; CHO membranes, human 5-HT1A) [%]",Compound,IC50 (5-HT1A [1]; [3]) [nM],inhibition at 10 µM (5-HT1A [2]) [%],further results
95,59,O=c1n(C/C=C\CN2CCN(c3ccc(Cl)c(Cl)c3)CC2)c2ccccc2n1CCO [Compound 371],,,
35,77,O=c1n(C/C=C/CN2CCN(c3ccccc3)CC2)c2ccccc2n1CCO [Compound 378],,,
32,86,CCNC(=O)OCCn1c(=O)n(C/C=C\CN2CCN(c3ccccc3)CC2)c2ccccc21 [Compound 395],,,
39,93,CCNC(=O)OCCn1c(=O)n(C/C=C/CN2CCN(c3ccccc3)CC2)c2ccccc21 [Compound 412],,,
39,97,COc1ccccc1N1CCN(C/C=C/Cn2c(=O)n(CCNS(C)(=O)=O)c3ccccc32)CC1 [Compound 535],,,
